US20260201008A1, “SECRETIN-DERIVED GLP1R SELECTIVE AGONISTS” (GUBRA A/S, priority 2023, published 2026)
Like-named read-outs stand apart in the source and are kept apart here. Numbered stars: 1 amine (or outer) side, 2 acyl side, 3 side chain; on linkers, the order of the positions; unused ones are H or OH. Square brackets hold non-standard residues; d marks the D form. Side chains are listed from the residue outwards. Peptide text beside a SMILES is read from it. * marks the point of attachment. C20 diacid = O=C(O)CCCCCCCCCCCCCCCCCCC(=O)*; γGlu = O=C(O)[C@H](CCC(=O)[*:2])N[*:1]; AEEA = NCCOCCOCC(=O)O; Aib = CC(C)(N)C(=O)O

How the values were obtained:
[1] = biological target: SCTR (Homo sapiens, UniProt P47872); test: hSCTR potency, cAMP accumulation in CHO-K1 cells stably overexpressing hSCTR; assay type: cell-based; design: alternatively Euroscreen ES-712-AF; FAST-0161L; host or cells: CHO-K1; settings: cAMP accumulation, CHO-K1 cells overexpressing hSCTR
SCTR, sequence (P47872 23-440): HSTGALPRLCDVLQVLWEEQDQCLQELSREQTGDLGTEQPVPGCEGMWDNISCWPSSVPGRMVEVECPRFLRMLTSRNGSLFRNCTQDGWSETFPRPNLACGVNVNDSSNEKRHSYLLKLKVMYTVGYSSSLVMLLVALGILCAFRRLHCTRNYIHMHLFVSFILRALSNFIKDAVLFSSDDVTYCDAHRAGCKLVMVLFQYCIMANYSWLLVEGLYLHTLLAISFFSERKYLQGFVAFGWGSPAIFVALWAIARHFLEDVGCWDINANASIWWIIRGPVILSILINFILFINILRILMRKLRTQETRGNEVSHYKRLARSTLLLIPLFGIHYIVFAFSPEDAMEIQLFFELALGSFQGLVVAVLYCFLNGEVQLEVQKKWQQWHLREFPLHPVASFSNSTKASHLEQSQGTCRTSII
Procedure, shortened: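 In this Gs cAMP assay, stably transfected CHO-K1 hSCTR cells were stimulated at room temperature for 30 min in IBMX-containing buffer. Time-resolved FRET gave the signal. Replicates were increased when the top concentration changed or EC50 values differed 5-fold.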

[2] = Fibril formation of crude library peptides (Thioflavin T); assay type: physicochemical; design: key: average ThT fluorescence emission at 480 nm (ex 450 nm), raw units; settings: Physical stability of peptides
Procedure, shortened: (§1)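 Fibril formation is scored as average ThT fluorescence from duplicate samples monitored for 72 h at 40° C with shaking stress. Turbidity is the absorbance at 600 nm taken before heating. Peptide concentration was 267 μM at pH 4.0 or pH 7.0.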

[3] = biological target: GLP1R (Homo sapiens, UniProt P43220); test: hGLP1R potency, cAMP accumulation in CHO-K1 cells stably overexpressing hGLP1R; assay type: cell-based; design: host or cells: CHO-K1; settings: for Selectivity: SCTR EC50/GLP1R EC50 ratio; for EC50: cAMP accumulation, CHO-K1 cells overexpressing hGLP1R; for SCTR EC50/GLP1R EC50 ratio: selectivity for hGLP1R over hSCTR, cAMP accumulation in CHO-K1 cells
GLP1R, sequence (P43220 24-463): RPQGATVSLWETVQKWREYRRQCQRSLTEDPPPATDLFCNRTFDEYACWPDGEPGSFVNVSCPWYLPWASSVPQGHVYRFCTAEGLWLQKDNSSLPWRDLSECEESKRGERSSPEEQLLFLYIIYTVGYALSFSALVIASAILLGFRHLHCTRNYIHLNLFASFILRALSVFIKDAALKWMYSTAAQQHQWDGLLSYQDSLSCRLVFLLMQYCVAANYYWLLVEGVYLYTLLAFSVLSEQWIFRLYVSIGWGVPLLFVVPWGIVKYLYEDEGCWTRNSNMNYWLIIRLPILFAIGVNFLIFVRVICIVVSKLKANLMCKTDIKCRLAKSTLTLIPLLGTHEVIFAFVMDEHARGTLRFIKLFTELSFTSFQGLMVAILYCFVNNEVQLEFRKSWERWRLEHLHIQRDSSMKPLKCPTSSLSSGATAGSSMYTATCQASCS
Procedure, shortened: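 In the presence of 0.5 mM IBMX, compounds stimulated the cells for 30 minutes at room temperature. Accumulated cAMP was then detected by TR-FRET, with EC50 values fitted by variable-slope nonlinear regression.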

[4] = Turbidity of crude library peptides (absorbance at 600 nm); assay type: physicochemical; settings: Physical stability of peptides
Procedure, shortened: as §1

[5] = read-out: pEC50 hSCTR (converted)
[6] = read-out: pEC50 hGLPR1 (converted)
[7] = read-out: hSCTR pEC50 (converted)
[8] = read-out: hGLP1R pEC50 (converted)

EC50 [1, 5] | Fibril formation [2] | Selectivity [3] | EC50 [3, 6] | Turbidity (pH 7) [4] | EC50 [1, 7] | EC50 [3, 8] | SCTR EC50/GLP1R EC50 ratio [3] | Compound
398 nM | 12180 | 21943 | 0.02 nM | 0.08 | – | – | – | CC(C)C[C@H](NC(=O)[C@H](Cc1ccccc1)NC(=O)[C@H](CCCNC(=N)N)NC(=O)[C@H](CCC(N)=O)NC(=O)[C@H](CCC(N)=O)NC(=O)[C@H](C)NC(=O)[C@H](C)NC(=O)C(C)(C)NC(=O)[C@H](CCC(=O)O)NC(=O)[C@H](CCCCNC(=O)COCCOCCNC(=O)COCCOCCNC(=O)CC[C@H](NC(=O)CCCCCCCCCCCCCCCCCCC(=O)O)C(=O)O)NC(=O)[C@H](CC(C)C)NC(=O)[C@@H](NC(=O)[C@H](CO)NC(=O)[C@@H](NC(=O)[C@H](CC(=O)O)NC(=O)[C@H](CO)NC(=O)[C@@H](NC(=O)[C@H](Cc1ccccc1)NC(=O)[C@@H](NC(=O)CNC(=O)[C@H](CCC(=O)O)NC(=O)C(C)(C)NC(=O)[C@@H](N)Cc1c[nH]cn1)[C@@H](C)O)[C@@H](C)O)C(C)C)C(C)C)C(=O)N[C@@H](CCC(=O)O)C(=O)N[C@@H](Cc1c[nH]cn1)C(=O)N[C@@H](CC(C)C)C(=O)N[C@H](C(N)=O)C(C)C [compound 40] (H-H[Aib]EGTFTSDVSVLK([AEEA-AEEA-γGlu-C20 diacid])E[Aib]AAQQRFLEHLV-NH2)
– | 4018 | – | – | 0.08 | 100 nM | 0.00631 nM | 16446 | CC(C)C[C@H](NC(=O)CNC(=O)[C@H](CO)NC(=O)[C@@H](NC(=O)[C@H](CC(=O)O)NC(=O)[C@H](CO)NC(=O)[C@@H](NC(=O)[C@H](Cc1ccccc1)NC(=O)[C@@H](NC(=O)CNC(=O)[C@H](CCC(=O)O)NC(=O)C(C)(C)NC(=O)[C@@H](N)Cc1c[nH]cn1)[C@@H](C)O)[C@@H](C)O)C(C)C)C(=O)N[C@@H](CCCCNC(=O)COCCOCCNC(=O)COCCOCCNC(=O)CC[C@H](NC(=O)CCCCCCCCCCCCCCCCCCC(=O)O)C(=O)O)C(=O)N[C@@H](CCC(=O)O)C(=O)N[C@@H](CCC(=O)O)C(=O)N[C@@H](C)C(=O)NC(C)(C)C(=O)N[C@@H](CC(C)C)C(=O)N[C@@H](CCC(N)=O)C(=O)N[C@@H](CCCNC(=N)N)C(=O)N[C@@H](Cc1ccccc1)C(=O)N[C@@H](CC(C)C)C(=O)N[C@@H](CCC(=O)O)C(=O)N[C@@H](Cc1c[nH]cn1)C(=O)N[C@@H](CC(C)C)C(=O)N[C@H](C(N)=O)C(C)C [compound 167] (H-H[Aib]EGTFTSDVSGLK([AEEA-AEEA-γGlu-C20 diacid])EEA[Aib]LQRFLEHLV-NH2)
– | 3679 | – | – | 0.08 | 20000 nM | 0.0126 nM | 1484910 | CC(C)C[C@H](NC(=O)[C@H](Cc1ccccc1)NC(=O)[C@H](CCCNC(=N)N)NC(=O)[C@H](CCC(N)=O)NC(=O)[C@H](CC(C)C)NC(=O)C(C)(C)NC(=O)[C@H](C)NC(=O)[C@H](CCC(=O)O)NC(=O)[C@H](CCC(=O)O)NC(=O)[C@H](CCCCNC(=O)COCCOCCNC(=O)COCCOCCNC(=O)CC[C@H](NC(=O)CCCCCCCCCCCCCCCCCCC(=O)O)C(=O)O)NC(=O)[C@H](CC(C)C)NC(=O)[C@H](Cc1ccc(O)cc1)NC(=O)[C@H](CO)NC(=O)[C@@H](NC(=O)[C@H](CC(=O)O)NC(=O)[C@H](CO)NC(=O)[C@@H](NC(=O)[C@H](Cc1ccccc1)NC(=O)[C@@H](NC(=O)CNC(=O)[C@H](CCC(=O)O)NC(=O)CNC(=O)[C@@H](N)Cc1c[nH]cn1)[C@@H](C)O)[C@@H](C)O)C(C)C)C(=O)N[C@@H](CCC(=O)O)C(=O)N[C@@H](Cc1c[nH]cn1)C(=O)N[C@@H](CC(C)C)C(=O)N[C@H](C(N)=O)C(C)C [compound 142] (H-HGEGTFTSDVSYLK([AEEA-AEEA-γGlu-C20 diacid])EEA[Aib]LQRFLEHLV-NH2)
1260 nM | 13444 | 11839 | 0.1 nM | 0.08 | – | – | – | CC(C)C[C@H](NC(=O)[C@H](Cc1ccccc1)NC(=O)[C@H](CCCNC(=N)N)NC(=O)[C@H](CCC(N)=O)NC(=O)C(C)(C)NC(=O)[C@H](C)NC(=O)[C@H](C)NC(=O)[C@H](Cc1ccccc1)NC(=O)[C@H](CCC(=O)O)NC(=O)[C@H](CCCCNC(=O)COCCOCCNC(=O)COCCOCCNC(=O)CC[C@H](NC(=O)CCCCCCCCCCCCCCCCCCC(=O)O)C(=O)O)NC(=O)[C@H](CC(C)C)NC(=O)[C@H](CCCNC(=N)N)NC(=O)[C@H](CO)NC(=O)[C@@H](NC(=O)[C@H](CC(=O)O)NC(=O)[C@H](CO)NC(=O)[C@@H](NC(=O)[C@H](Cc1ccccc1)NC(=O)[C@@H](NC(=O)CNC(=O)[C@H](CCC(=O)O)NC(=O)C(C)(C)NC(=O)[C@@H](N)Cc1c[nH]cn1)[C@@H](C)O)[C@@H](C)O)C(C)C)C(=O)N[C@@H](CCC(=O)O)C(=O)N[C@@H](Cc1c[nH]cn1)C(=O)N[C@@H](CC(C)C)C(=O)N[C@H](C(N)=O)C(C)C [compound 68] (H-H[Aib]EGTFTSDVSRLK([AEEA-AEEA-γGlu-C20 diacid])EFAA[Aib]QRFLEHLV-NH2)
– | 9344 | – | – | 0.08 | 3980 nM | 0.2 nM | 19815 | CC(C)C[C@H](NC(=O)[C@H](CCC(=O)O)NC(=O)[C@H](CCCCNC(=O)COCCOCCNC(=O)COCCOCCNC(=O)CC[C@H](NC(=O)CCCCCCCCCCCCCCCCCCC(=O)O)C(=O)O)NC(=O)[C@H](CC(C)C)NC(=O)[C@H](Cc1ccc(O)cc1)NC(=O)[C@H](CO)NC(=O)[C@@H](NC(=O)[C@H](CC(=O)O)NC(=O)[C@H](CO)NC(=O)[C@@H](NC(=O)[C@H](Cc1ccccc1)NC(=O)[C@@H](NC(=O)CNC(=O)[C@H](CCC(=O)O)NC(=O)C(C)(C)NC(=O)[C@@H](N)Cc1c[nH]cn1)[C@@H](C)O)[C@@H](C)O)C(C)C)C(=O)N[C@@H](C)C(=O)N[C@@H](C)C(=O)N[C@@H](C)C(=O)N[C@@H](CCC(N)=O)C(=O)N[C@@H](CCCNC(=N)N)C(=O)N[C@@H](Cc1ccccc1)C(=O)N[C@@H](CC(C)C)C(=O)N[C@@H](CCC(=O)O)C(=O)N[C@@H](Cc1c[nH]cn1)C(=O)N[C@@H](CC(C)C)C(=O)N[C@H](C(N)=O)C(C)C [compound 86] (H-H[Aib]EGTFTSDVSYLK([AEEA-AEEA-γGlu-C20 diacid])ELAAAQRFLEHLV-NH2)
251 nM | 10330 | 10637 | 0.0251 nM | 0.08 | – | – | – | CC(C)C[C@H](NC(=O)[C@H](Cc1ccccc1)NC(=O)[C@H](CCCNC(=N)N)NC(=O)[C@H](CCC(N)=O)NC(=O)[C@H](CO)NC(=O)[C@H](C)NC(=O)[C@H](C)NC(=O)[C@H](CCC(=O)O)NC(=O)[C@H](CCC(=O)O)NC(=O)[C@H](CCCCNC(=O)COCCOCCNC(=O)COCCOCCNC(=O)CC[C@H](NC(=O)CCCCCCCCCCCCCCCCCCC(=O)O)C(=O)O)NC(=O)[C@H](CC(C)C)NC(=O)[C@H](CCCNC(=N)N)NC(=O)[C@H](CO)NC(=O)[C@@H](NC(=O)[C@H](CC(=O)O)NC(=O)[C@H](CO)NC(=O)[C@@H](NC(=O)[C@H](Cc1ccccc1)NC(=O)[C@@H](NC(=O)CNC(=O)[C@H](CCC(=O)O)NC(=O)C(C)(C)NC(=O)[C@@H](N)Cc1c[nH]cn1)[C@@H](C)O)[C@@H](C)O)C(C)C)C(=O)N[C@@H](CCC(=O)O)C(=O)N[C@@H](Cc1c[nH]cn1)C(=O)N[C@@H](CC(C)C)C(=O)N[C@H](C(N)=O)C(C)C [compound 17] (H-H[Aib]EGTFTSDVSRLK([AEEA-AEEA-γGlu-C20 diacid])EEAASQRFLEHLV-NH2)
126 nM | 109124 | 16199 | 0.00794 nM | 0.08 | – | – | – | CC(C)C[C@H](NC(=O)[C@H](Cc1ccccc1)NC(=O)[C@H](CCCNC(=N)N)NC(=O)[C@H](CCC(N)=O)NC(=O)[C@H](CCC(N)=O)NC(=O)[C@H](C)NC(=O)[C@H](C)NC(=O)[C@@H](NC(=O)[C@H](CCC(=O)O)NC(=O)[C@H](CCCCNC(=O)COCCOCCNC(=O)COCCOCCNC(=O)CC[C@H](NC(=O)CCCCCCCCCCCCCCCCCCC(=O)O)C(=O)O)NC(=O)[C@H](CC(C)C)NC(=O)[C@@H](NC(=O)[C@H](CO)NC(=O)[C@@H](NC(=O)[C@H](CC(=O)O)NC(=O)[C@H](CO)NC(=O)[C@@H](NC(=O)[C@H](Cc1ccccc1)NC(=O)[C@@H](NC(=O)CNC(=O)[C@H](CCC(=O)O)NC(=O)C(C)(C)NC(=O)[C@@H](N)Cc1c[nH]cn1)[C@@H](C)O)[C@@H](C)O)C(C)C)C(C)C)[C@@H](C)O)C(=O)N[C@@H](CCC(=O)O)C(=O)N[C@@H](Cc1c[nH]cn1)C(=O)N[C@@H](CC(C)C)C(=O)N[C@H](C(N)=O)C(C)C [compound 41] (H-H[Aib]EGTFTSDVSVLK([AEEA-AEEA-γGlu-C20 diacid])ETAAQQRFLEHLV-NH2)
